Holding throughout (type): physicochemical
Conditions in all cases: conclusion in words

The nature of data set [1]: Experiment 1: Volatilization of menthol. The procedure: The prepared compositions were placed in petri dishes and used as test samples.
Each test sample was allowed to volatilize without being covered under room temperature conditions for a certain period of time. The mass of each test sample was measured at a given time point. The volatilization amount and rate were calculated from the measured values.
Similarly, the volatilization amount and rate of a test sample using only caryophyllene were also calculated.
The time constant was calculated from the measurement results [by subtracting the volatilization amount of caryophyllene (theoretical value)].
In the table, the unit of the time constant is hour (h) (the same applies hereinafter).

Data set [2] is described as follows: Experiment 2: Dissolution of menthol.
Experimental: The amounts (parts by mass (pbm)) of the ingredients shown in the table below were placed into 20-mL lidded glass bottles.
The lidded glass bottles were placed into a water bath set at 25° C. After the temperature reached 25° C., the bottles were kept warm for 30 minutes to adjust the temperature.
The temperature was continuously kept at 25° C. With every 20 minutes, the lidded glass bottles were inverted for mixing and checked visually to see if the menthol had dissolved. The time to complete dissolution was recorded as the time required for the menthol to dissolve. Check was made every 20 minutes until 360 minutes had passed, and then 3 days later, visual check was made again. When the menthol had not dissolved after 3 days, the result was recorded as non-dissolved.
The nature of data set [3]: Experiment 3: Freezing resistance.
Experimental: The amounts (parts by mass (pbm)) of the ingredients shown in the table below were mixed and placed into 20-mL lidded glass bottles to dissolve into solutions. The lidded glass bottles were placed into a water bath set at 25° C. After the temperature reached 25° C., the bottles were kept warm for 30 minutes to adjust the temperature.
Then, the glass bottles were placed in a freezer (at approximately −20° C.). The freezer was opened every 30 minutes to visually check if each solution had solidified. The time point when the solution was partially solidified and the time point when the solution was completely solidified were recorded. Check was made every 30 minutes until 360 minutes had passed, and then 3 days later, visual check was made again. When the menthol had not solidified after 3 days, the result was recorded as non-solidified.

Consider Caryophyllene, for which the “Effect on volatilization of menthol” value in data set [1] was “enhances volatilization of menthol”. Moreover, the “Effect on dissolution of menthol” value in data set [2] is “enhanced dissolution of menthol”. Besides, the “Effect on freezing resistance of the MCT” value in data set [3] is recorded as “improved freezing resistance of the MCT”.
